Measured values reported in PubChem BioAssay AID194 (DTP/NCI, 2004).
Several values for one entry are separate records, joined by “and”; a condition that tells them apart may be missing. Equal values may be shown once. Records with an inconclusive call do not appear.

System: BDF1 mice, B16 melanoma s.c., survival/tumor T/C
Assay: NCI In Vivo Anticancer Drug Screen. Data for tumor model B16 Melanoma (subcutaneous) in B6D2F1 (BDF1) mice
Protocol: The antitumor activity of compounds was measured in mice bearing transplantable tumors. Survival or tumor size were measured and the results are expressed as the measurement made in the treated group (T) divided by the measurement made in the vehicle treated control group (C). The tumor model used in this assay is B16 Melanoma (subcutaneous) in B6D2F1 (BDF1) mice

[1] = endpoint: median survival time, dose: 100.0 mg/kg/injection, schedule: Q04DX003 (ip), vehicle: saline, higher = longer survival
[2] = endpoint: median survival time, dose: 0.5 mg/kg/injection, schedule: Q01DX009 (ip), vehicle: saline, higher = longer survival

CCC(c1ccc(OC(=O)Cc2ccc(N(CCCl)CCCl)cc2)cc1)C(CC)c1ccc(OC(=O)Cc2ccc(N(CCCl)CCCl)cc2)cc1 (configuration not stated)
T/C (endpoint: median survival time, dose: 80.0 mg/kg/injection, schedule: Q01DX009 (ip), vehicle: saline with Tween-80, higher = longer survival): 102 % of control
T/C (endpoint: median survival time, dose: 120.0 mg/kg/injection, schedule: Q01DX009 (ip), vehicle: saline with Tween-80, higher = longer survival): 106 % of control
T/C (endpoint: median survival time, dose: 180.0 mg/kg/injection, schedule: Q01DX009 (ip), vehicle: saline with Tween-80, higher = longer survival): 93 % of control
T/C (endpoint: median survival time, dose: 270.0 mg/kg/injection, schedule: Q01DX009 (ip), vehicle: saline with Tween-80, higher = longer survival): 102 % of control
T/C (endpoint: median survival time, dose: 405.0 mg/kg/injection, schedule: Q01DX009 (ip), vehicle: saline with Tween-80, higher = longer survival): 90 % of control

COc1cccc2c1C(=O)c1c(O)c3c(c(O)c1C2=O)CC(O)(C(=O)CO)CC3OC1CC(N)C(O)C(C)O1 (configuration not stated)
T/C (endpoint: median survival time, dose: 2.9 mg/kg/injection, schedule: Q01DX009 (ip), vehicle: saline, higher = longer survival): 103 % of control
T/C (endpoint: median survival time, dose: 5.8 mg/kg/injection, schedule: Q01DX009 (ip), vehicle: saline, higher = longer survival): 107 % of control

CC1(C)N=C(N)N=C(N)N1c1ccc(OCCOc2ccc(S(=O)(=O)F)cc2)c(Cl)c1
T/C (endpoint: median survival time, dose: 12.5 mg/kg/injection, schedule: Q04DX003 (ip), vehicle: saline, higher = longer survival): 104 % of control
T/C (endpoint: median survival time, dose: 25.0 mg/kg/injection, schedule: Q04DX003 (ip), vehicle: saline, higher = longer survival): 104 % of control
T/C [1]: 109 % of control

O=c1[nH]c(=O)n(C2CC(O)C(CO)O2)cc1F (configuration not stated)
T/C (endpoint: median survival time, dose: 25.0 mg/kg/injection, schedule: Q01DX009 (ip), vehicle: saline with Tween-80, higher = longer survival): 109 % of control
T/C (endpoint: median survival time, dose: 100.0 mg/kg/injection, schedule: Q01DX009 (ip), vehicle: saline with Tween-80, higher = longer survival): 122 % of control
T/C (endpoint: median survival time, dose: 200.0 mg/kg/injection, schedule: Q01DX009 (ip), vehicle: saline with Tween-80, higher = longer survival): 120 % of control
T/C (endpoint: median survival time, dose: 200.0 mg/kg/injection, schedule: Q04DX003 (ip), vehicle: saline, higher = longer survival): 112 % of control
T/C (endpoint: median tumor weight (est.), dose: 25.0 mg/kg/injection, schedule: Q01DX009 (ip), vehicle: saline with Tween-80, higher = larger tumour): 68 % of control
T/C (endpoint: median tumor weight (est.), dose: 50.0 mg/kg/injection, schedule: Q01DX009 (ip), vehicle: saline with Tween-80, higher = larger tumour): 59 % of control
T/C (endpoint: median tumor weight (est.), dose: 50.0 mg/kg/injection, schedule: Q01DX009 (ip), vehicle: saline, higher = larger tumour): 96 % of control and 220 % of control
T/C (endpoint: median tumor weight (est.), dose: 100.0 mg/kg/injection, schedule: Q01DX009 (ip), vehicle: saline with Tween-80, higher = larger tumour): 41 % of control
T/C (endpoint: median tumor weight (est.), dose: 100.0 mg/kg/injection, schedule: Q01DX009 (ip), vehicle: saline, higher = larger tumour): 49 % of control and 71 % of control
T/C (endpoint: median tumor weight (est.), dose: 200.0 mg/kg/injection, schedule: Q01DX009 (ip), vehicle: saline, higher = larger tumour): 55 % of control

COc1cc2c(c(OC)c1OC)-c1ccc(OC)c(=O)cc1[C@@H](NC(C)=O)CC2
T/C (endpoint: median survival time, dose: 63.0 micrograms/kg/injection, schedule: Q01DX009 (ip), vehicle: saline, higher = longer survival): 95 % of control
T/C (endpoint: median survival time, dose: 125.0 micrograms/kg/injection, schedule: Q01DX009 (ip), vehicle: saline, higher = longer survival): 116 % of control
T/C (endpoint: median survival time, dose: 250.0 micrograms/kg/injection, schedule: Q01DX009 (ip), vehicle: saline, higher = longer survival): 105 % of control
T/C (endpoint: median survival time, dose: 500.0 micrograms/kg/injection, schedule: Q01DX009 (ip), vehicle: saline, higher = longer survival): 103 % of control

O=C1CSC(=S)N1c1ccco1
T/C (endpoint: median survival time, dose: 50.0 mg/kg/injection, schedule: Q01DX009 (ip), vehicle: Klucel (hydroxypropylcellulose) (HPC), higher = longer survival): 111 % of control
T/C (endpoint: median survival time, dose: 400.0 mg/kg/injection, schedule: Q01DX009 (ip), vehicle: Klucel (hydroxypropylcellulose) (HPC), higher = longer survival): 118 % of control

CC1(C)N=C(N)N=C(N)N1c1ccc(CCCCc2ccc(S(=O)(=O)F)cc2Cl)c(Cl)c1
T/C (endpoint: median survival time, dose: 6.25 mg/kg/injection, schedule: Q01DX009 (ip), vehicle: saline, higher = longer survival): 119 % of control
T/C (endpoint: median survival time, dose: 12.5 mg/kg/injection, schedule: Q01DX009 (ip), vehicle: saline, higher = longer survival): 90 % of control
T/C (endpoint: median survival time, dose: 18.75 mg/kg/injection, schedule: Q04DX003 (ip), vehicle: saline, higher = longer survival): 88 % of control
T/C (endpoint: median survival time, dose: 25.0 mg/kg/injection, schedule: Q01DX009 (ip), vehicle: saline, higher = longer survival): 111 % of control
T/C (endpoint: median survival time, dose: 37.5 mg/kg/injection, schedule: Q04DX003 (ip), vehicle: saline, higher = longer survival): 105 % of control
T/C (endpoint: median survival time, dose: 75.0 mg/kg/injection, schedule: Q04DX003 (ip), vehicle: saline, higher = longer survival): 110 % of control
T/C (endpoint: median survival time, dose: 150.0 mg/kg/injection, schedule: Q04DX003 (ip), vehicle: saline, higher = longer survival): 119 % of control

Cc1cc(NC(=O)NCc2ccc(N3C(N)=NC(N)=NC3(C)C)cc2)ccc1S(=O)(=O)F
T/C (endpoint: median survival time, dose: 50.0 mg/kg/injection, schedule: Q04DX003 (ip), vehicle: saline, higher = longer survival): 106 % of control
T/C [1]: 95 % of control

NC(=O)c1[nH]nc(C2OC(CO)C(O)C2O)c1O (configuration not stated)
T/C (endpoint: median survival time, dose: 0.12 mg/kg/injection, schedule: Q01DX009 (ip), vehicle: saline, higher = longer survival): 108 % of control
T/C (endpoint: median survival time, dose: 0.25 mg/kg/injection, schedule: Q01DX009 (ip), vehicle: saline, higher = longer survival): 109 % of control
T/C [2]: 106 % of control
T/C (endpoint: median survival time, dose: 0.67 mg/kg/injection, schedule: Q01DX009 (ip), vehicle: saline, higher = longer survival): 102 % of control
T/C (endpoint: median survival time, dose: 1.25 mg/kg/injection, schedule: Q01DX009 (ip), vehicle: saline, higher = longer survival): 87 % of control

CC1(C)N=C(N)N=C(N)N1c1ccc(CCCCc2cccc(S(=O)(=O)F)c2)c(Cl)c1
T/C (endpoint: median survival time, dose: 12.0 mg/kg/injection, schedule: Q01DX009 (ip), vehicle: saline, higher = longer survival): 121 % of control
T/C (endpoint: median survival time, dose: 18.0 mg/kg/injection, schedule: Q01DX009 (ip), vehicle: saline, higher = longer survival): 98 % of control

CC1=C(/C=C/C(C)=C/C=C/C(C)=C/C(=O)O)C(C)(C)CCC1
T/C (endpoint: median survival time, dose: 4.0 mg/kg/injection, schedule: Q01DX009 (ip), vehicle: saline with Tween-80, higher = longer survival): 88 % of control

CCOC(=O)c1csc(CCNC(=O)c2ccccc2)n1
T/C (endpoint: median survival time, dose: 6.25 mg/kg/injection, schedule: Q01DX009 (ip), vehicle: water, higher = longer survival): 101 % of control
T/C (endpoint: median survival time, dose: 12.5 mg/kg/injection, schedule: Q01DX009 (ip), vehicle: water, higher = longer survival): 94 % of control
T/C (endpoint: median survival time, dose: 25.0 mg/kg/injection, schedule: Q01DX009 (ip), vehicle: water, higher = longer survival): 113 % of control
T/C (endpoint: median survival time, dose: 50.0 mg/kg/injection, schedule: Q01DX009 (ip), vehicle: water, higher = longer survival): 87 % of control
T/C (endpoint: median survival time, dose: 100.0 mg/kg/injection, schedule: Q01DX009 (ip), vehicle: water, higher = longer survival): 98 % of control

CCN1C=C/C(=C/c2cc3scc(-c4ccccc4)[n+]3c3ccccc23)c2ccccc21
T/C (endpoint: median survival time, dose: 0.15 mg/kg/injection, schedule: Q01DX009 (ip), vehicle: Klucel (hydroxypropylcellulose) (HPC), higher = longer survival): 107 % of control

CC1(C)N=C(N)N=C(N)N1c1ccc(OCCCNC(=O)Nc2cccc(S(=O)(=O)F)c2)c(Cl)c1
T/C (endpoint: median survival time, dose: 50.0 mg/kg/injection, schedule: Q01DX009 (ip), vehicle: saline, higher = longer survival): 115 % of control
T/C (endpoint: median survival time, dose: 100.0 mg/kg/injection, schedule: Q01DX009 (ip), vehicle: saline, higher = longer survival): 91 % of control

O=NN(CCCl)C(=O)NCCCl
T/C [2]: 100 % of control
T/C (endpoint: median survival time, dose: 1.0 mg/kg/injection, schedule: Q01DX009 (ip), vehicle: saline, higher = longer survival): 106 % of control
T/C (endpoint: median survival time, dose: 1.5 mg/kg/injection, schedule: Q02DX009 (ip), vehicle: saline + alcohol, higher = longer survival): 151 % of control
T/C (endpoint: median survival time, dose: 2.0 mg/kg/injection, schedule: Q01DX009 (ip), vehicle: saline, higher = longer survival): 117 % of control
T/C (endpoint: median survival time, dose: 3.11 mg/kg/injection, schedule: Q01DX007 (ip), vehicle: Klucel (hydroxypropylcellulose) (HPC), higher = longer survival): 117 % of control
T/C (endpoint: median survival time, dose: 4.0 mg/kg/injection, schedule: Q01DX009 (ip), vehicle: saline, higher = longer survival): 184 % of control
T/C (endpoint: median survival time, dose: 8.0 mg/kg/injection, schedule: Q01DX009 (ip), vehicle: saline, higher = longer survival): 167 % of control
T/C (endpoint: median survival time, dose: 14.4 mg/kg/injection, schedule: Q01DX007 (ip), vehicle: Klucel (hydroxypropylcellulose) (HPC), higher = longer survival): 121 % of control

Cc1c2ccncc2c(C)c2c1[nH]c1ccccc12
T/C (endpoint: median survival time, dose: 25.0 mg/kg/injection, schedule: Q04DX003 (ip), vehicle: Klucel (hydroxypropylcellulose) (HPC), higher = longer survival): 105 % of control
T/C (endpoint: median survival time, dose: 50.0 mg/kg/injection, schedule: Q04DX003 (ip), vehicle: Klucel (hydroxypropylcellulose) (HPC), higher = longer survival): 98 % of control
T/C (endpoint: median survival time, dose: 82.0 mg/kg/injection, schedule: Q04DX003 (ip), vehicle: saline with Tween-80, higher = longer survival): 122 % of control
T/C (endpoint: median survival time, dose: 400.0 mg/kg/injection, schedule: Q01DX001 (ip), vehicle: saline with Tween-80, higher = longer survival): 112 % of control
T/C (endpoint: median survival time, dose: 900.0 mg/kg/injection, schedule: Q01DX001 (ip), vehicle: saline with Tween-80, higher = longer survival): 114 % of control

CCOC(=O)C(CC(C)C)NC(=O)C(Cc1ccc(N(CCCl)CCCl)cc1)NC(C)=O (configuration not stated)
T/C (endpoint: median survival time, dose: 1.0 mg/kg/injection, schedule: Q01DX009 (ip), vehicle: other, higher = longer survival): 91 % of control
T/C (endpoint: median survival time, dose: 2.0 mg/kg/injection, schedule: Q01DX009 (ip), vehicle: other, higher = longer survival): 103 % of control
T/C (endpoint: median survival time, dose: 4.0 mg/kg/injection, schedule: Q01DX009 (ip), vehicle: other, higher = longer survival): 97 % of control
T/C (endpoint: median survival time, dose: 16.0 mg/kg/injection, schedule: Q01DX009 (ip), vehicle: other, higher = longer survival): 89 % of control

CCCCCc1cc(O)c2c(c1)OC(C)(C)c1ccc(C)cc1-2
T/C (endpoint: median survival time, dose: 64.0 mg/kg/injection, schedule: Q01DX009 (ip), vehicle: saline, higher = longer survival): 113 % of control
T/C (endpoint: median survival time, dose: 128.0 mg/kg/injection, schedule: Q01DX009 (ip), vehicle: saline, higher = longer survival): 98 % of control
T/C (endpoint: median survival time, dose: 256.0 mg/kg/injection, schedule: Q01DX009 (ip), vehicle: saline, higher = longer survival): 117 % of control
T/C (endpoint: median survival time, dose: 512.0 mg/kg/injection, schedule: Q01DX009 (ip), vehicle: saline, higher = longer survival): 98 % of control
